Source: patent publication US20100267561A1, “HERBICIDAL PYRIDAZINONE DERIVATIVES” (priority 2007, published 2010)

Key:
Assay type in all cases: in vivo
[1] = test system: barnyardgrass (Echinochloa crus-galli); assay: Test A pre-/postemergence plant response
How it was run: (§1)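 Ratings run 0–100 (100 = complete control), assigned visually against untreated controls roughly 10 days after treatment in a greenhouse. Compounds, formulated in non-phytotoxic solvent containing surfactant, were applied as a soil-directed preemergence spray and concurrently postemergence to one- to two-leaf plants 2–10 cm tall.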

[2] = test system: giant foxtail (Setaria faberi); assay: Test A pre-/postemergence plant response
How it was run: as §1

[3] = test system: large crabgrass (Digitaria sanguinalis); assay: Test A pre-/postemergence plant response
How it was run: as §1

[4] = test system: morningglory (Ipomoea coccinea); assay: Test A pre-/postemergence plant response
How it was run: as §1

[5] = test system: pigweed (Amaranthus retroflexus); assay: Test A pre-/postemergence plant response
How it was run: as §1

[6] = test system: velvetleaf (Abutilon theophrasti); assay: Test A pre-/postemergence plant response
How it was run: as §1

[7] = test system: wheat (Triticum aestivum); assay: Test A pre-/postemergence plant response
How it was run: as §1

[8] = test system: canarygrass (Phalaris minor); assay: Test B postemergence plant response; details: for Canarygrass plant response rating: 8 g ai/ha, postemergence, 0-100 scale; for Plant response rating, Canarygrass: Postemergence
How it was run: (§2)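 Visual injury score from 0 (none) to 100 (complete control) versus controls, taken 13 to 15 days after treatment in the greenhouse; chemicals applied postemergence, as formulated, to plants of 1- to 4-leaf stage (2 to 18 cm tall); dash denotes no test result.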

[9] = test system: chickweed (Stellaria media); assay: Test B postemergence plant response; details: for Chickweed plant response rating: 8 g ai/ha, postemergence, 0-100 scale; for Plant response rating, Chickweed: Postemergence
How it was run: as §2

[10] = test system: windgrass (Apera spica-venti); assay: Test B postemergence plant response; details: for Windgrass plant response rating: 8 g ai/ha, postemergence, 0-100 scale; for Plant response rating, Windgrass: Postemergence
How it was run: as §2

[11] = test system: winter barley (Hordeum vulgare); assay: Test B postemergence plant response; details: for Barley plant response rating: 8 g ai/ha, postemergence, 0-100 scale; for Plant response rating, Barley: Postemergence
How it was run: as §2

[12] = test system: barnyardgrass (Echinochloa crus-galli); assay: Test B flooded paddy test plant response
How it was run: (§3)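 Rice, umbrella sedge, ducksalad and barnyardgrass at 2-leaf stage; pots flooded to 3 cm, compounds applied into paddy water, depth held throughout. Greenhouse 13 to 15 days, then visual rating vs untreated controls on 0–100 scale (0 no effect, 100 complete control); dash means no test result.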

[13] = test system: ducksalad (Heteranthera limosa); assay: Test B flooded paddy test plant response
How it was run: as §3

[14] = test system: umbrella sedge (Cyperus difformis); assay: Test B flooded paddy test plant response
How it was run: as §3

[15] = Postemergence, 125 g ai/ha, 0 to 100 scale, 0 no effect, 100 complete control
[16] = Postemergence, 500 g ai/ha, 0 to 100 scale, 0 no effect, 100 complete control
[17] = Preemergence, 125 g ai/ha, 0 to 100 scale (0 no effect, 100 complete control)
[18] = Preemergence, 500 g ai/ha, 0 to 100 scale (0 no effect, 100 complete control)
[19] = 31 g ai/ha, scale 0 to 100, 0 no effect, 100 complete control
[20] = 16 g ai/ha, scale 0 to 100, 0 no effect, 100 complete control
[21] = Flood (flooded paddy test), 62 g ai/ha, scale 0 to 100, 0 no effect, 100 complete control
[22] = Flood (flooded paddy test), 125 g ai/ha, scale 0 to 100, 0 no effect, 100 complete control
[23] = Flood (flooded paddy test), 250 g ai/ha, scale 0 to 100, 0 no effect, 100 complete control
[24] = Flood, 31 g ai/ha, scale 0 to 100
[25] = Postemergence, 31 g ai/ha, 0 to 100 scale, 0 no effect, 100 complete control
[26] = Preemergence, 31 g ai/ha, 0 to 100 scale, 0 is no effect, 100 is complete control
[27] = 62 g ai/ha, scale 0 to 100, 0 no effect, 100 complete control

CCc1cc(-c2ccc(Cl)cc2)nn1-c1c(O)cnn(C)c1=O [Compound 21]
Plant response rating, Barnyardgrass [1, 15]: 100
Plant response rating, Barnyardgrass [1, 16]: 100
Plant response rating, Barnyardgrass [1, 17]: 100
Plant response rating, Barnyardgrass [1, 18]: 100
Plant response rating, Foxtail, Giant [2, 15]: 100
Plant response rating, Foxtail, Giant [2, 16]: 100
Plant response rating, Foxtail, Giant [2, 17]: 100
Plant response rating, Foxtail, Giant [2, 18]: 100
Plant response rating, Crabgrass, Large [3, 15]: 90
Plant response rating, Crabgrass, Large [3, 16]: 100
Plant response rating, Crabgrass, Large [3, 17]: 100
Plant response rating, Crabgrass, Large [3, 18]: 100
Plant response rating, Morningglory [4, 15]: 0
Plant response rating, Morningglory [4, 16]: 0
Plant response rating, Morningglory [4, 17]: 0
Plant response rating, Morningglory [4, 18]: 0
Plant response rating, Pigweed [5, 15]: 0
Plant response rating, Pigweed [5, 16]: 0
Plant response rating, Pigweed [5, 17]: 0
Plant response rating, Pigweed [5, 18]: 0
Plant response rating, Velvetleaf [6, 15]: 0
Plant response rating, Velvetleaf [6, 16]: 0
Plant response rating, Velvetleaf [6, 17]: 0
Plant response rating, Velvetleaf [6, 18]: 0
Plant response rating, Wheat [7, 15]: 60
Plant response rating, Wheat [7, 16]: 80
Plant response rating, Wheat [7, 17]: 90
Plant response rating, Wheat [7, 18]: 100
Canarygrass plant response rating [8]: 10
Plant response rating, Canarygrass ([8]; 16 g ai/ha, scale 0 to 100): 90
Plant response rating, Canarygrass ([8]; 62 g ai/ha, scale 0 to 100): 100
Chickweed plant response rating [9]: 0
Plant response rating, Chickweed ([9]; 16 g ai/ha, scale 0 to 100): 0
Plant response rating, Chickweed [9, 19]: 0
Plant response rating, Chickweed ([9]; 62 g ai/ha, scale 0 to 100): 0
Windgrass plant response rating [10]: 50
Plant response rating, Windgrass ([10]; 16 g ai/ha, scale 0 to 100): 98
Plant response rating, Windgrass [10, 19]: 100
Plant response rating, Windgrass ([10]; 62 g ai/ha, scale 0 to 100): 100
Barley plant response rating [11]: 0
Plant response rating, Barley [11, 20]: 60
Plant response rating, Barley ([11]; 62 g ai/ha, scale 0 to 100): 100
Plant response rating, Barnyardgrass [12, 21]: 75
Plant response rating, Barnyardgrass [12, 22]: 80
Plant response rating, Barnyardgrass [12, 23]: 100
Plant response rating, Barnyardgrass [12, 24]: 55
Plant response rating, Ducksalad [13, 21]: 0
Plant response rating, Ducksalad [13, 22]: 0
Plant response rating, Ducksalad [13, 23]: 65
Plant response rating, Ducksalad [13, 24]: 0
Plant response rating, Sedge, Umbrella [14, 21]: 0
Plant response rating, Sedge, Umbrella [14, 22]: 0
Plant response rating, Sedge, Umbrella [14, 23]: 30
Plant response rating, Sedge, Umbrella [14, 24]: 0

Cc1cc(-c2ccc(Cl)cc2)nn1-c1c(OC(=O)c2cccc(Cl)c2)cnn(C)c1=O [Compound 32]
Plant response rating, Barnyardgrass [1, 25]: 0
Plant response rating, Barnyardgrass [1, 15]: 70
Plant response rating, Barnyardgrass [1, 26]: 20
Plant response rating, Barnyardgrass [1, 17]: 90
Plant response rating, Foxtail, Giant [2, 25]: 10
Plant response rating, Foxtail, Giant [2, 15]: 90
Plant response rating, Foxtail, Giant [2, 26]: 90
Plant response rating, Foxtail, Giant [2, 17]: 100
Plant response rating, Crabgrass, Large [3, 25]: 10
Plant response rating, Crabgrass, Large [3, 15]: 70
Plant response rating, Crabgrass, Large [3, 26]: 90
Plant response rating, Crabgrass, Large [3, 17]: 90
Plant response rating, Morningglory [4, 25]: 0
Plant response rating, Morningglory [4, 15]: 0
Plant response rating, Morningglory [4, 26]: 0
Plant response rating, Morningglory [4, 17]: 0
Plant response rating, Pigweed [5, 25]: 0
Plant response rating, Pigweed [5, 15]: 10
Plant response rating, Pigweed [5, 17]: 0
Plant response rating, Velvetleaf [6, 25]: 0
Plant response rating, Velvetleaf [6, 15]: 0
Plant response rating, Velvetleaf [6, 26]: 0
Plant response rating, Velvetleaf [6, 17]: 10
Plant response rating, Wheat [7, 25]: 0
Plant response rating, Wheat [7, 15]: 20
Plant response rating, Wheat [7, 26]: 0
Plant response rating, Wheat [7, 17]: 60
Canarygrass plant response rating [8]: 0
Plant response rating, Canarygrass ([8]; 16 g ai/ha, scale 0 to 100): 10
Plant response rating, Canarygrass [8, 19]: 10
Plant response rating, Canarygrass [8, 27]: 30
Chickweed plant response rating [9]: 0
Plant response rating, Chickweed ([9]; 16 g ai/ha, scale 0 to 100): 0
Plant response rating, Chickweed [9, 19]: 0
Plant response rating, Chickweed [9, 27]: 20
Windgrass plant response rating [10]: 0
Plant response rating, Windgrass ([10]; 16 g ai/ha, scale 0 to 100): 0
Plant response rating, Windgrass [10, 27]: 50
Barley plant response rating [11]: 0
Plant response rating, Barley [11, 20]: 0
Plant response rating, Barley [11, 19]: 0
Plant response rating, Barley [11, 27]: 0
Plant response rating, Barnyardgrass [12, 21]: 20
Plant response rating, Barnyardgrass [12, 22]: 65
Plant response rating, Barnyardgrass [12, 23]: 70
Plant response rating, Barnyardgrass [12, 24]: 10
Plant response rating, Ducksalad [13, 21]: 30
Plant response rating, Ducksalad [13, 22]: 40
Plant response rating, Ducksalad [13, 23]: 40
Plant response rating, Ducksalad [13, 24]: 30
Plant response rating, Sedge, Umbrella [14, 21]: 30
Plant response rating, Sedge, Umbrella [14, 22]: 30
Plant response rating, Sedge, Umbrella [14, 23]: 30
Plant response rating, Sedge, Umbrella [14, 24]: 20
